Activity calls are given as the source filed them.
Columns and labels:
[1] = molecular target: T1, Casein kinase II subunit alpha' (Homo sapiens, UniProt P19784); assay: Displacement of fluorescent tracer from full-length human C-terminal NanoLuc-tagged CK2alpha' expressed in HEK293T permeabilized cells measured after 2 hrs by NanoBRET assay; format: cell-based
[2] = molecular target: T2, Casein kinase II subunit alpha (Homo sapiens, UniProt P68400); assay: Displacement of fluorescent tracer from full-length human C-terminal NanoLuc-tagged CK2alpha expressed in HEK293T permeabilized cells measured after 2 hrs by NanoBRET assay; format: cell-based
T2 sequence (P68400 whole entry): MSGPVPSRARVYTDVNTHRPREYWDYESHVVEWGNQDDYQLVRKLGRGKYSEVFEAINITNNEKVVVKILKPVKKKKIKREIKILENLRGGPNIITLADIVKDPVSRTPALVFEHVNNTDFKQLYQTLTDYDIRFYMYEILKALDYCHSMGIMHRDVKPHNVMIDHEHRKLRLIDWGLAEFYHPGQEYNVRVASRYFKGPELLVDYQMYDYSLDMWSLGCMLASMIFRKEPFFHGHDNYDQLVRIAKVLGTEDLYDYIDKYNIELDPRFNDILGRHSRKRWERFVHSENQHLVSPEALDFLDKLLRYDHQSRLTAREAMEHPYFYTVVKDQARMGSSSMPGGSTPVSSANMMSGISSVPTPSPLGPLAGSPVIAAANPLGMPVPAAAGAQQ

[3] = molecular target: T1, Casein kinase II subunit alpha'; assay: Displacement of fluorescent tracer from full-length human C-terminal NanoLuc-tagged CK2alpha' expressed in HEK293T cells measured after 2 hrs by NanoBRET assay; format: cell-based
[4] = molecular target: T2, Casein kinase II subunit alpha; assay: Displacement of fluorescent tracer from full-length human C-terminal NanoLuc-tagged CK2alpha expressed in HEK293T cells measured after 2 hrs by NanoBRET assay; format: cell-based
MCF7 = assay: Cytotoxicity against human MCF7 cells assessed as cell growth inhibition at 10 uM incubated for 48 hrs by SRB assay; format: functional, cell-based
M14 = assay: Cytotoxicity against human M14 cells assessed as cell growth inhibition at 10 uM incubated for 48 hrs by SRB assay; format: functional, cell-based
786-0 = assay: Cytotoxicity against human 786-0 cells assessed as cell growth inhibition at 10 uM incubated for 48 hrs by SRB assay; format: functional, cell-based
SK-MEL-5 = assay: Cytotoxicity against human SK-MEL-5 cells assessed as cell growth inhibition at 10 uM incubated for 48 hrs by SRB assay; format: functional, cell-based
HL-60(TB) = assay: Cytotoxicity against human HL-60(TB) cells assessed as cell growth inhibition at 10 uM incubated for 48 hrs by SRB assay; format: functional, cell-based
HOP-92 = assay: Cytotoxicity against human HOP-92 cells assessed as cell growth inhibition at 10 uM incubated for 48 hrs by SRB assay; format: functional, cell-based
SK-MEL-2 = assay: Cytotoxicity against human SK-MEL-2 cells assessed as cell growth inhibition at 10 uM incubated for 48 hrs by SRB assay; format: functional, cell-based
OVCAR-8 = assay: Cytotoxicity against human OVCAR-8 cells assessed as cell growth inhibition at 10 uM incubated for 48 hrs by SRB assay; format: functional, cell-based
NCI-H226 = assay: Cytotoxicity against human NCI-H226 cells assessed as cell growth inhibition at 10 uM incubated for 48 hrs by SRB assay; format: functional, cell-based
UACC-257 = assay: Cytotoxicity against human UACC-257 cells assessed as cell growth inhibition at 10 uM incubated for 48 hrs by SRB assay; format: functional, cell-based
UACC-62 = assay: Cytotoxicity against human UACC-62 cells assessed as cell growth inhibition at 10 uM incubated for 48 hrs by SRB assay; format: functional, cell-based
HCT-15 = assay: Cytotoxicity against human HCT-15 cells assessed as cell growth inhibition at 10 uM incubated for 48 hrs by SRB assay; format: functional, cell-based
MDA-MB-468 = assay: Cytotoxicity against human MDA-MB-468 cells assessed as cell growth inhibition at 10 uM incubated for 48 hrs by SRB assay; format: functional, cell-based
NCI-H23 = assay: Cytotoxicity against human NCI-H23 cells assessed as cell growth inhibition at 10 uM incubated for 48 hrs by SRB assay; format: functional, cell-based
OVCAR-5 = assay: Cytotoxicity against human OVCAR-5 cells assessed as cell growth inhibition at 10 uM incubated for 48 hrs by SRB assay; format: functional, cell-based
RPMI-8226 = assay: Cytotoxicity against human RPMI-8226 cells assessed as cell growth inhibition at 10 uM incubated for 48 hrs by SRB assay; format: functional, cell-based
DU-145 = assay: Cytotoxicity against human DU-145 cells assessed as cell growth inhibition at 10 uM incubated for 48 hrs by SRB assay; format: functional, cell-based
SW-620 = assay: Cytotoxicity against human SW-620 cells assessed as cell growth inhibition at 10 uM incubated for 48 hrs by SRB assay; format: functional, cell-based
ACHN = assay: Cytotoxicity against human ACHN cells assessed as cell growth inhibition at 10 uM incubated for 48 hrs by SRB assay; format: functional, cell-based
BT-549 = assay: Cytotoxicity against human BT-549 cells assessed as cell growth inhibition at 10 uM incubated for 48 hrs by SRB assay; format: functional, cell-based
UO-31 = assay: Cytotoxicity against human UO-31 cells assessed as cell growth inhibition at 10 uM incubated for 48 hrs by SRB assay; format: functional, cell-based
SK-MEL-28 = assay: Cytotoxicity against human SK-MEL-28 cells assessed as cell growth inhibition at 10 uM incubated for 48 hrs by SRB assay; format: functional, cell-based
[5] = molecular target: Dual specificity tyrosine-phosphorylation-regulated kinase 1A (Homo sapiens) (UniProt Q13627); assay: Inhibition of wild-type human partial length DYRK1A (H129 to S509 residues) expressed in mammalian expression system at 1 uM by Kinomescan method
Malme-3M = assay: Cytotoxicity against human Malme-3M cells assessed as cell growth inhibition at 10 uM incubated for 48 hrs by SRB assay; format: functional, cell-based
K562 = assay: Cytotoxicity against human K562 cells assessed as cell growth inhibition at 10 uM incubated for 48 hrs by SRB assay; format: functional, cell-based
NCI-H522 = assay: Cytotoxicity against human NCI-H522 cells assessed as cell growth inhibition at 10 uM incubated for 48 hrs by SRB assay; format: functional, cell-based
LOX IMVI = assay: Cytotoxicity against human LOX IMVI cells assessed as cell growth inhibition at 10 uM incubated for 48 hrs by SRB assay; format: functional, cell-based
SF-539 = assay: Cytotoxicity against human SF-539 cells assessed as cell growth inhibition at 10 uM incubated for 48 hrs by SRB assay; format: functional, cell-based
A498 = assay: Cytotoxicity against human A498 cells assessed as cell growth inhibition at 10 uM incubated for 48 hrs by SRB assay; format: functional, cell-based
NCI-H460 = assay: Cytotoxicity against human NCI-H460 cells assessed as cell growth inhibition at 10 uM incubated for 48 hrs by SRB assay; format: functional, cell-based
COLO 205 = assay: Cytotoxicity against human COLO 205 cells assessed as cell growth inhibition at 10 uM incubated for 48 hrs by SRB assay; format: functional, cell-based
SR = assay: Cytotoxicity against human SR cells assessed as cell growth inhibition at 10 uM incubated for 48 hrs by SRB assay; format: functional, cell-based
SK-OV-3 = assay: Cytotoxicity against human SK-OV-3 cells assessed as cell growth inhibition at 10 uM incubated for 48 hrs by SRB assay; format: functional, cell-based
A549 = assay: Cytotoxicity against human A549 cells assessed as cell growth inhibition at 10 uM incubated for 48 hrs by SRB assay; format: functional, cell-based
U-251 = assay: Cytotoxicity against human U251 cells assessed as cell growth inhibition at 10 uM incubated for 48 hrs by SRB assay; format: functional, cell-based
SNB-75 = assay: Cytotoxicity against human SNB-75 cells assessed as cell growth inhibition at 10 uM incubated for 48 hrs by SRB assay; format: functional, cell-based
CCRF-CEM = assay: Cytotoxicity against human CCRF-CEM cells assessed as cell growth inhibition at 10 uM incubated for 48 hrs by SRB assay; format: functional, cell-based
IGROV-1 = assay: Cytotoxicity against human IGROV-1 cells assessed as cell growth inhibition at 10 uM incubated for 48 hrs by SRB assay; format: functional, cell-based
SF-295 = assay: Cytotoxicity against human SF-295 cells assessed as cell growth inhibition at 10 uM incubated for 48 hrs by SRB assay; format: functional, cell-based
T47D = assay: Cytotoxicity against human T47D cells assessed as cell growth inhibition at 10 uM incubated for 48 hrs by SRB assay; format: functional, cell-based
RXF 393 = assay: Cytotoxicity against human RXF 393 cells assessed as cell growth inhibition at 10 uM incubated for 48 hrs by SRB assay; format: functional, cell-based
Hs-578T = assay: Cytotoxicity against human Hs-578T cells assessed as cell growth inhibition at 10 uM incubated for 48 hrs by SRB assay; format: functional, cell-based
CAKI-1 = assay: Cytotoxicity against human CAK1 cells assessed as cell growth inhibition at 10 uM incubated for 48 hrs by SRB assay; format: functional, cell-based
SF-268 = assay: Cytotoxicity against human SF-268 cells assessed as cell growth inhibition at 10 uM incubated for 48 hrs by SRB assay; format: functional, cell-based
PC-3 = assay: Cytotoxicity against human PC-3 cells assessed as cell growth inhibition at 10 uM incubated for 48 hrs by SRB assay; format: functional, cell-based
MDA-MB-435 = assay: Cytotoxicity against human MDA-MB-435 cells assessed as cell growth inhibition at 10 uM incubated for 48 hrs by SRB assay; format: functional, cell-based
HOP-62 = assay: Cytotoxicity against human HOP-62 cells assessed as cell growth inhibition at 10 uM incubated for 48 hrs by SRB assay; format: functional, cell-based
MDA-MB-231 = assay: Cytotoxicity against human MDA-MB-231 cells assessed as cell growth inhibition at 10 uM incubated for 48 hrs by SRB assay; format: functional, cell-based
HCC 2998 = assay: Cytotoxicity against human HCC 2998 cells assessed as cell growth inhibition at 10 uM incubated for 48 hrs by SRB assay; format: functional, cell-based
EKVX = assay: Cytotoxicity against human EKVX cells assessed as cell growth inhibition at 10 uM incubated for 48 hrs by SRB assay; format: functional, cell-based
MOLT-4 = assay: Cytotoxicity against human MOLT-4 cells assessed as cell growth inhibition at 10 uM incubated for 48 hrs by SRB assay; format: functional, cell-based
SN12C = assay: Cytotoxicity against human SN12C cells assessed as cell growth inhibition at 10 uM incubated for 48 hrs by SRB assay; format: functional, cell-based
HT-29 = assay: Cytotoxicity against human HT-29 cells assessed as cell growth inhibition at 10 uM incubated for 48 hrs by SRB assay; format: functional, cell-based
OVCAR-4 = assay: Cytotoxicity against human OVCAR-4 cells assessed as cell growth inhibition at 10 uM incubated for 48 hrs by SRB assay; format: functional, cell-based
NCI/ADR-RES = assay: Cytotoxicity against human NCI/ADR-RES cells assessed as cell growth inhibition at 10 uM incubated for 48 hrs by SRB assay; format: functional, cell-based
NCI-H322M = assay: Cytotoxicity against human NCI-H322M cells assessed as cell growth inhibition at 10 uM incubated for 48 hrs by SRB assay; format: functional, cell-based
KM12 = assay: Cytotoxicity against human KM12 cells assessed as cell growth inhibition at 10 uM incubated for 48 hrs by SRB assay; format: functional, cell-based
TK-10 = assay: Cytotoxicity against human TK-10 cells assessed as cell growth inhibition at 10 uM incubated for 48 hrs by SRB assay; format: functional, cell-based
[6] = molecular target: Homeodomain-interacting protein kinase 1 (Homo sapiens) (UniProt Q86Z02); assay: Inhibition of wild-type human partial length HIPK1 (M146 to I555 residues) expressed in mammalian expression system at 1 uM by Kinomescan method
Homeodomain-interacting protein kinase 1 (Homo sapiens), sequence (Q86Z02 whole entry, looked up, the tested form may be a part): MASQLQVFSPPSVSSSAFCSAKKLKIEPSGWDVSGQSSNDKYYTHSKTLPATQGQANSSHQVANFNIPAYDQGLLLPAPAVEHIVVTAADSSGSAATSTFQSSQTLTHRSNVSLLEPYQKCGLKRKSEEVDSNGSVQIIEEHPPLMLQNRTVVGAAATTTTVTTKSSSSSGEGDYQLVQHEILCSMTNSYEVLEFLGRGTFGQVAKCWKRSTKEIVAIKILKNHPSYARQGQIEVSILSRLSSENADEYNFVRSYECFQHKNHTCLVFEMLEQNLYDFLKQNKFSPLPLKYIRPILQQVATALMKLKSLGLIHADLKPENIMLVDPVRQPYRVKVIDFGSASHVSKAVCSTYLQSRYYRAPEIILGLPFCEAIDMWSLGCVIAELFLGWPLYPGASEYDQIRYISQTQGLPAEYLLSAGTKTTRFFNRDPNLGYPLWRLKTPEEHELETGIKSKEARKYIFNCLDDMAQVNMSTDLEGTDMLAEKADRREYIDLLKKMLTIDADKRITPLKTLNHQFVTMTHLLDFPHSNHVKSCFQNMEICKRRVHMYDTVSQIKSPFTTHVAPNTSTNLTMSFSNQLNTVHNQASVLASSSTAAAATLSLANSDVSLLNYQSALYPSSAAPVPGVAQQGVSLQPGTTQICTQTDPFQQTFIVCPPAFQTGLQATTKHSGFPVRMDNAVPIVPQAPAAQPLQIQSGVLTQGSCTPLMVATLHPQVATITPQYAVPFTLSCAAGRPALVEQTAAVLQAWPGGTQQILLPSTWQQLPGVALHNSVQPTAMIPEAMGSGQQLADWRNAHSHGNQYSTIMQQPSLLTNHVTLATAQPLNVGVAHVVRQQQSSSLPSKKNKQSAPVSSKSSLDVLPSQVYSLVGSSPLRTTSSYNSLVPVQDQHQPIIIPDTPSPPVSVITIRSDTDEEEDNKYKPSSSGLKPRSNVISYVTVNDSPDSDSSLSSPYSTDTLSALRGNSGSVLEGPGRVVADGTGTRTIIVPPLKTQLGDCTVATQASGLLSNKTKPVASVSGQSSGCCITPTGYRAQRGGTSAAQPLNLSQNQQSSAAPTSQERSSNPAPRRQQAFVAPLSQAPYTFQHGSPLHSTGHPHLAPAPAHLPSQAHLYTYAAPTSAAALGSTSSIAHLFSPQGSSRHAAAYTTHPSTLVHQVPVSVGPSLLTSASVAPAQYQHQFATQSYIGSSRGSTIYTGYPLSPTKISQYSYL

SNB-19 = assay: Cytotoxicity against human SNB-19 cells assessed as cell growth inhibition at 10 uM incubated for 48 hrs by SRB assay; format: functional, cell-based
OVCAR-3 = assay: Cytotoxicity against human OVCAR-3 cells assessed as cell growth inhibition at 10 uM incubated for 48 hrs by SRB assay; format: functional, cell-based
HCT-116 = assay: Cytotoxicity against human HCT-116 cells assessed as cell growth inhibition at 10 uM incubated for 48 hrs by SRB assay; format: functional, cell-based

T1 sequence (P19784 whole entry): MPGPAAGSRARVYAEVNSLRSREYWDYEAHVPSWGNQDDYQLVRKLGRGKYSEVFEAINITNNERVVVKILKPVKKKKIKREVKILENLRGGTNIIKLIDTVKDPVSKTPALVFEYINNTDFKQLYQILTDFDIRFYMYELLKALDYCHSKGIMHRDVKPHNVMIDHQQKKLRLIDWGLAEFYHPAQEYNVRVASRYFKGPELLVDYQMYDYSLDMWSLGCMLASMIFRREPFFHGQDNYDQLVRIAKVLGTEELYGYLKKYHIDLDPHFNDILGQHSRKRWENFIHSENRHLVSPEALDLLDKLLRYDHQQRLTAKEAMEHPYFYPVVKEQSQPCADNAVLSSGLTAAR

COC(=O)c1ccc2cc1OCCOCCNc1ccn3ncc-2c3n1
> 50 µM: IC50 [1] | IC50 [3] | IC50 [4]
13.2 µM: IC50 [2]

COC(=O)c1ccc(-c2cnn3ccc(N(CCOCCO)C(=O)OC(C)(C)C)nc23)cc1O
> 50 µM: IC50 [1] | IC50 [3] | IC50 [4]
7.52 µM: IC50 [2]

CC(C)(C)OC(=O)N(CCOCCO)c1ccn2ncc(-c3ccc(C(=O)O)c(O)c3)c2n1
inactive: Activity (MCF7) | Activity (M14) | Activity (786-0) | Activity (SK-MEL-5) | Activity (HL-60(TB)) | Activity (HOP-92) | Activity (SK-MEL-2) | Activity (OVCAR-8) | Activity (NCI-H226) | Activity (UACC-257) | Activity (UACC-62) | Activity (HCT-15) | Activity (MDA-MB-468) | Activity (NCI-H23) | Activity (OVCAR-5) | Activity (RPMI-8226) | Activity (DU-145) | Activity (SW-620) | Activity (ACHN) | Activity (BT-549) | Activity (UO-31) | Activity (SK-MEL-28) | inhibition [5] | Activity (Malme-3M) | Activity (K562) | Activity (NCI-H522) | Activity (LOX IMVI) | Activity (SF-539) | Activity (A498) | Activity (NCI-H460) | Activity (COLO 205) | Activity (SR) | Activity (SK-OV-3) | Activity (A549) | Activity (U-251) | Activity (SNB-75) | Activity (CCRF-CEM) | Activity (IGROV-1) | Activity (SF-295) | Activity (T47D) | Activity (RXF 393) | Activity (Hs-578T) | Activity (CAKI-1) | Activity (SF-268) | Activity (PC-3) | Activity (MDA-MB-435) | Activity (HOP-62) | Activity (MDA-MB-231) | Activity (HCC 2998) | Activity (EKVX) | Activity (MOLT-4) | Activity (SN12C) | Activity (HT-29) | Activity (OVCAR-4) | Activity (NCI/ADR-RES) | Activity (NCI-H322M) | Activity (KM12) | Activity (TK-10) | inhibition [6] | Activity (SNB-19) | Activity (OVCAR-3) | Activity (HCT-116)

CC(C)(C)OC(=O)N1CCOCCOc2cc(ccc2C(=O)O)-c2cnn3ccc1nc23
0.771 µM: IC50 [1]

O=C(O)c1ccc2cc1OCCOCCNc1ccn3ncc-2c3n1
0.075 µM: IC50 [2]
0.303 µM: IC50 [1]

From ChEMBL document CHEMBL4706554 (Eur J Med Chem, 2020)
